Test results reported in ChEMBL document CHEMBL1201862, “PubChem BioAssay data set” (2004).
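Values below derive from 48-hour exposures of cells grown in 96-well plates, with endpoints linearly interpolated between the two concentrations bracketing the appropriate inhibition level. Here, GI50 denotes the concentration required for 50% inhibition of growth.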 Active and inactive are the calls of the source. No stated cut-off is given here; in the data, active = GI50 up to about 1.1 µM and inactive = higher.

Legend:
Experiment in all cases: growth of human tumour cells (NCI), 48 h
[1] = tested on: CCRF-CEM
[2] = tested on: HOP-92
[3] = tested on: IGROV-1
[4] = tested on: K562
[5] = tested on: Malme-3M
[6] = tested on: NCI-H23
[7] = tested on: OVCAR-3
[8] = tested on: OVCAR-4
[9] = tested on: OVCAR-8
[10] = tested on: SF-268
[11] = tested on: SK-MEL-28
[12] = tested on: SK-MEL-5
[13] = tested on: SK-OV-3
[14] = tested on: SNB-19
[15] = tested on: SNB-75
[16] = tested on: U-251
[17] = tested on: RPMI-8226
[18] = tested on: RXF 393
[19] = tested on: NCI-H226

O=C1NC2OC(CO)C(O)C(O)C2O1 (configuration not stated)
GI50 [1]: > 100 µM (inactive) | GI50 [2]: > 100 µM (inactive) | GI50 [3]: > 100 µM (inactive) | GI50 [4]: > 100 µM (inactive) | GI50 [5]: > 100 µM (inactive) | GI50 [6]: > 100 µM (inactive) | GI50 [7]: > 100 µM (inactive) | GI50 [8]: > 100 µM (inactive) | GI50 [9]: > 100 µM (inactive) | GI50 [10]: > 100 µM (inactive) | GI50 [11]: > 100 µM (inactive) | GI50 [12]: > 100 µM (inactive) | GI50 [13]: > 100 µM (inactive) | GI50 [14]: > 100 µM (inactive) | GI50 [15]: > 100 µM (inactive) | GI50 [16]: > 100 µM (inactive)

C[Si](C)(C)C1(Sc2ccccc2)SCCCS1
GI50 [1]: 14.8 µM (inactive) | GI50 [2]: 32.8 µM (inactive) | GI50 [3]: 41.8 µM (inactive) | GI50 [4]: 31.1 µM (inactive) | GI50 [5]: 70.6 µM (inactive) | GI50 [6]: 31.6 µM (inactive) | GI50 [7]: 30.1 µM (inactive) | GI50 [8]: 57.1 µM (inactive) | GI50 [9]: 33.8 µM (inactive) | GI50 [17]: 24.6 µM (inactive) | GI50 [18]: 32.5 µM (inactive) | GI50 [10]: 31.8 µM (inactive) | GI50 [11]: 43.3 µM (inactive) | GI50 [12]: 72.9 µM (inactive) | GI50 [13]: > 100 µM (inactive) | GI50 [14]: 36.9 µM (inactive) | GI50 [15]: 37.8 µM (inactive) | GI50 [16]: 38.4 µM (inactive)

COC1CC(OS(=O)(=O)c2ccc(C)cc2)C(OS(=O)(=O)c2ccc(C)cc2)C(COS(=O)(=O)c2ccc(C)cc2)O1 (configuration not stated)
GI50 [1]: 74.3 µM (inactive) | GI50 [3]: 4.89 µM (inactive) | GI50 [4]: 23.9 µM (inactive) | GI50 [5]: 2.39 µM (inactive) | GI50 [19]: 3.23 µM (inactive) | GI50 [6]: 2.92 µM (inactive) | GI50 [7]: 1.89 µM (inactive) | GI50 [8]: 0.336 µM (active) | GI50 [9]: 1.82 µM (inactive) | GI50 [17]: 19.4 µM (inactive) | GI50 [18]: 1.71 µM (inactive) | GI50 [10]: 1.02 µM (active) | GI50 [11]: 2.98 µM (inactive) | GI50 [12]: 4.85 µM (inactive) | GI50 [13]: 3.01 µM (inactive) | GI50 [14]: 2.22 µM (inactive) | GI50 [15]: 0.535 µM (active) | GI50 [16]: 3.01 µM (inactive)

O=C1COc2cc3c(cc2N1)SCCC(=O)N3
GI50 [1]: > 100 µM (inactive) | GI50 [2]: > 100 µM (inactive) | GI50 [3]: > 100 µM (inactive) | GI50 [4]: > 100 µM (inactive) | GI50 [5]: > 100 µM (inactive) | GI50 [19]: > 100 µM (inactive) | GI50 [6]: > 100 µM (inactive) | GI50 [7]: > 100 µM (inactive) | GI50 [8]: > 100 µM (inactive) | GI50 [9]: > 100 µM (inactive) | GI50 [17]: > 100 µM (inactive) | GI50 [10]: > 100 µM (inactive) | GI50 [11]: > 100 µM (inactive) | GI50 [12]: > 100 µM (inactive) | GI50 [13]: > 100 µM (inactive) | GI50 [14]: > 100 µM (inactive) | GI50 [15]: > 100 µM (inactive)

CCCCCc1cc(OC(=O)c2c(O)cc(OC)cc2CCCCC)cc(O)c1C(=O)O
GI50 [1]: 20.7 µM (inactive) | GI50 [2]: 16.4 µM (inactive) | GI50 [3]: 16.6 µM (inactive) | GI50 [4]: 26.8 µM (inactive) | GI50 [5]: 13 µM (inactive) | GI50 [6]: 12.4 µM (inactive) | GI50 [8]: 20 µM (inactive) | GI50 [9]: 18.2 µM (inactive) | GI50 [17]: 14.5 µM (inactive) | GI50 [18]: 16 µM (inactive) | GI50 [10]: 13.2 µM (inactive) | GI50 [11]: 17.1 µM (inactive) | GI50 [12]: 14.8 µM (inactive) | GI50 [13]: 16.7 µM (inactive) | GI50 [14]: 12.7 µM (inactive) | GI50 [15]: 17.2 µM (inactive) | GI50 [16]: 15.2 µM (inactive)

O=C(/N=C1\SCCN1C(=O)C(C(F)(F)F)C(F)(F)F)C(C(F)(F)F)C(F)(F)F
GI50 [1]: > 100 µM (inactive) | GI50 [2]: > 100 µM (inactive) | GI50 [3]: > 100 µM (inactive) | GI50 [4]: > 100 µM (inactive) | GI50 [5]: > 100 µM (inactive) | GI50 [19]: > 100 µM (inactive) | GI50 [6]: > 100 µM (inactive) | GI50 [7]: > 100 µM (inactive) | GI50 [8]: > 100 µM (inactive) | GI50 [9]: > 100 µM (inactive) | GI50 [17]: > 100 µM (inactive) | GI50 [18]: > 100 µM (inactive) | GI50 [11]: > 100 µM (inactive) | GI50 [12]: > 100 µM (inactive) | GI50 [13]: > 100 µM (inactive) | GI50 [14]: > 100 µM (inactive) | GI50 [16]: > 100 µM (inactive)

CCOC(=O)C(NC(=O)c1cccc(Cl)c1)(Nc1ccc(S(=O)(=O)Nc2cc(C)nc(C)n2)cc1)C(F)(F)F (configuration not stated)
GI50 [1]: > 100 µM (inactive) | GI50 [2]: 80.5 µM (inactive) | GI50 [3]: > 100 µM (inactive) | GI50 [5]: > 100 µM (inactive) | GI50 [19]: > 100 µM (inactive) | GI50 [6]: > 100 µM (inactive) | GI50 [7]: > 100 µM (inactive) | GI50 [8]: > 100 µM (inactive) | GI50 [9]: > 100 µM (inactive) | GI50 [17]: > 100 µM (inactive) | GI50 [10]: > 100 µM (inactive) | GI50 [11]: > 100 µM (inactive) | GI50 [12]: > 100 µM (inactive) | GI50 [13]: > 100 µM (inactive) | GI50 [14]: > 100 µM (inactive) | GI50 [15]: > 100 µM (inactive) | GI50 [16]: > 100 µM (inactive)

NC(=O)NC12CC3CC(CC(F)(C3)C1)C2
GI50 [1]: > 100 µM (inactive) | GI50 [2]: > 100 µM (inactive) | GI50 [3]: > 100 µM (inactive) | GI50 [4]: > 100 µM (inactive) | GI50 [5]: > 100 µM (inactive) | GI50 [6]: > 100 µM (inactive) | GI50 [7]: > 100 µM (inactive) | GI50 [9]: > 100 µM (inactive) | GI50 [17]: > 100 µM (inactive) | GI50 [18]: > 100 µM (inactive) | GI50 [11]: > 100 µM (inactive) | GI50 [13]: > 100 µM (inactive) | GI50 [14]: > 100 µM (inactive) | GI50 [15]: 87.9 µM (inactive) | GI50 [16]: > 100 µM (inactive)

CC(C#N)c1cn(S(=O)(=O)c2ccccc2)c2ccccc12 (configuration not stated)
GI50 [1]: 48.8 µM (inactive) | GI50 [2]: 12.4 µM (inactive) | GI50 [3]: 78.5 µM (inactive) | GI50 [4]: 39.8 µM (inactive) | GI50 [5]: 35.7 µM (inactive) | GI50 [19]: 25.7 µM (inactive) | GI50 [6]: 39.9 µM (inactive) | GI50 [7]: 53.1 µM (inactive) | GI50 [8]: 34 µM (inactive) | GI50 [9]: 80.7 µM (inactive) | GI50 [17]: 38.5 µM (inactive) | GI50 [10]: 82.8 µM (inactive) | GI50 [11]: 60.7 µM (inactive) | GI50 [12]: 16.2 µM (inactive) | GI50 [14]: 42.9 µM (inactive) | GI50 [15]: 8.95 µM (inactive) | GI50 [16]: > 100 µM (inactive)

Cc1cccc(C(C)(C)C)c1NC(=O)CC1Sc2ccccc2NC1=O (configuration not stated)
GI50 [1]: 55.7 µM (inactive) | GI50 [2]: 3.8 µM (inactive) | GI50 [3]: > 100 µM (inactive) | GI50 [4]: 33 µM (inactive) | GI50 [5]: > 100 µM (inactive) | GI50 [19]: 94.2 µM (inactive) | GI50 [6]: 46.6 µM (inactive) | GI50 [7]: 55.7 µM (inactive) | GI50 [8]: > 100 µM (inactive) | GI50 [9]: 94.2 µM (inactive) | GI50 [17]: 19 µM (inactive) | GI50 [10]: 87.9 µM (inactive) | GI50 [11]: > 100 µM (inactive) | GI50 [12]: > 100 µM (inactive) | GI50 [13]: > 100 µM (inactive) | GI50 [14]: > 100 µM (inactive) | GI50 [15]: > 100 µM (inactive) | GI50 [16]: 25.6 µM (inactive)

CC(=O)Oc1c(C)n(CCCl)ccc1=O
GI50 [1]: 84.3 µM (inactive) | GI50 [4]: > 100 µM (inactive) | GI50 [5]: > 100 µM (inactive) | GI50 [19]: > 100 µM (inactive) | GI50 [7]: > 100 µM (inactive) | GI50 [8]: > 100 µM (inactive) | GI50 [9]: > 100 µM (inactive) | GI50 [17]: > 100 µM (inactive) | GI50 [18]: > 100 µM (inactive) | GI50 [10]: > 100 µM (inactive) | GI50 [11]: > 100 µM (inactive) | GI50 [12]: > 100 µM (inactive) | GI50 [13]: > 100 µM (inactive) | GI50 [14]: > 100 µM (inactive) | GI50 [15]: > 100 µM (inactive) | GI50 [16]: > 100 µM (inactive)

Cc1ccc2c(c1)C1(C)OC(CC(N)C1O)O2 (configuration not stated)
GI50 [1]: > 100 µM (inactive) | GI50 [3]: > 100 µM (inactive) | GI50 [4]: > 100 µM (inactive) | GI50 [5]: > 100 µM (inactive) | GI50 [19]: > 100 µM (inactive) | GI50 [6]: > 100 µM (inactive) | GI50 [7]: > 100 µM (inactive) | GI50 [9]: > 100 µM (inactive) | GI50 [17]: > 100 µM (inactive) | GI50 [18]: > 100 µM (inactive) | GI50 [11]: > 100 µM (inactive) | GI50 [12]: > 100 µM (inactive) | GI50 [13]: > 100 µM (inactive) | GI50 [14]: > 100 µM (inactive) | GI50 [15]: 29.8 µM (inactive) | GI50 [16]: > 100 µM (inactive)
